According to publication PMC12781075, “Crosstalk between arachidonic acid metabolism and glycolysis drives integrated metabolic-inflammatory reprogramming in macrophages” (International Journal of Biological Sciences, 2026):
pKd: −log10 of the molar value.

Experiments:
[1] = biological target: T1, pyruvate kinase M2 (PKM2) (Mus musculus, UniProt P52480); assay: ITC; LC/MS/MS peptide mapping of the adduct; CETSA and DARTS in lysates; format: binding
T1 construct: gene Pkm; recombinant mouse PKM2 (pET-28a, E. coli)
T1 sequence (P52480 whole entry): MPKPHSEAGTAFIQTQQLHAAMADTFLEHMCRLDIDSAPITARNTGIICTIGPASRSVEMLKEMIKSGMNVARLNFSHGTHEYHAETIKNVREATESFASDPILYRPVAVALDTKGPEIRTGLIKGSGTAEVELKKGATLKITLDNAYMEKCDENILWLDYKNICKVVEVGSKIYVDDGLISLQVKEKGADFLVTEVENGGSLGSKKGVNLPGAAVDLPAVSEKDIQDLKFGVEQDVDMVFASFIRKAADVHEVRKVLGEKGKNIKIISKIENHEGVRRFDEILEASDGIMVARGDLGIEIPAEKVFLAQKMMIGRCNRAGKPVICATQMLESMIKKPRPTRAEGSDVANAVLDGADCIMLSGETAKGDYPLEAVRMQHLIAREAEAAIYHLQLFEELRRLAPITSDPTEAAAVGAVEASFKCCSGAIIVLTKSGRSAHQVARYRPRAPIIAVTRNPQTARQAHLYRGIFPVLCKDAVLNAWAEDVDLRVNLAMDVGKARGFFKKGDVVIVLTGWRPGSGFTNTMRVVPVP

PKM2(C49S) = biological target: T2, PKM2(C49S) (Mus musculus, UniProt P52480, C49S); assay: ITC (much weaker than wild type); format: binding
T2 construct: gene Pkm; recombinant mouse PKM2 C49S (pET-28a, E. coli)
T2 sequence (P52480 whole entry C49S): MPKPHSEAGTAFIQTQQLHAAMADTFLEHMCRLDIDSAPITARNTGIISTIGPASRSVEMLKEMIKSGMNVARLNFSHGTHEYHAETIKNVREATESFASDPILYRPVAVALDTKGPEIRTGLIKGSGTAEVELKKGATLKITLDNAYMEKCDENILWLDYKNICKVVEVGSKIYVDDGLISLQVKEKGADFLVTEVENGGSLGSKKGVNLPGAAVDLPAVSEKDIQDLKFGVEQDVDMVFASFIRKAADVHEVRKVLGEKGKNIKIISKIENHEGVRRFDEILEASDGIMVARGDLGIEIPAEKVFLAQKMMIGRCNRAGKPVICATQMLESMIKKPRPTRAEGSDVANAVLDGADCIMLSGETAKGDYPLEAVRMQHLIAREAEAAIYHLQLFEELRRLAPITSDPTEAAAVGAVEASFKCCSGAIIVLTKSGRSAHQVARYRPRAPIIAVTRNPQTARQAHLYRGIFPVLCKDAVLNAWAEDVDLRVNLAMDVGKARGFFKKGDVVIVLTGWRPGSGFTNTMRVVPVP

pKd [1]: 6.04
pKd (PKM2(C49S)): 4.42
SMILES: CCCCCC(=O)/C=C/[C@@H]1[C@@H](C/C=C\CCCC(=O)O)[C@@H](O)C[C@H]1O [15-keto-PGF2α]
